Earlier results in patent US20230150906A1, “DESOXYSCALINE DERIVATIVES WITH MODIFIED MESCALINE-LIKE ACTION” (Mind Medicine, Inc., priority 2021, published 2023).
Entries after “also recorded” stand apart in the source; their conditions may differ.

Legend:
[1] = biological target: 5-HT transporter (SERT) (Homo sapiens, UniProt P31645)
[2] = biological target: 5-HT2A receptor (Homo sapiens, UniProt P28223)
[3] = biological target: D2 receptors (Homo sapiens, UniProt P14416)
[4] = test system: humans
[5] = humans
[6] = biological target: serotonin 5-HT2A receptor (Homo sapiens, UniProt P28223)
Sequence of serotonin 5-HT2A receptor (P28223 whole entry): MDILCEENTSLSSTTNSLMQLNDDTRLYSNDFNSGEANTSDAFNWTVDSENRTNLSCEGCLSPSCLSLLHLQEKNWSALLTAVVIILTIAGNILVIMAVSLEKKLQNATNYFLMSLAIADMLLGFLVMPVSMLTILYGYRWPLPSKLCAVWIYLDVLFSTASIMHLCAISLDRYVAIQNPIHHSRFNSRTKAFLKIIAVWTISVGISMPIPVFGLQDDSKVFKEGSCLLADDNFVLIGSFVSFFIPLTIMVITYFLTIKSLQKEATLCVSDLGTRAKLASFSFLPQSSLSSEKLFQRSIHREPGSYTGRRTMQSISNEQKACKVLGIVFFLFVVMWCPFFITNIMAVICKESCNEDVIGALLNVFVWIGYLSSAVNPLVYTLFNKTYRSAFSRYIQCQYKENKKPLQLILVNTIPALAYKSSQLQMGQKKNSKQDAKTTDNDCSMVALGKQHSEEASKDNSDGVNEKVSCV

Sequence of 5-HT2A receptor (P28223 whole entry): as above
Sequence of 5-HT transporter (SERT) (P31645 whole entry, species assumed): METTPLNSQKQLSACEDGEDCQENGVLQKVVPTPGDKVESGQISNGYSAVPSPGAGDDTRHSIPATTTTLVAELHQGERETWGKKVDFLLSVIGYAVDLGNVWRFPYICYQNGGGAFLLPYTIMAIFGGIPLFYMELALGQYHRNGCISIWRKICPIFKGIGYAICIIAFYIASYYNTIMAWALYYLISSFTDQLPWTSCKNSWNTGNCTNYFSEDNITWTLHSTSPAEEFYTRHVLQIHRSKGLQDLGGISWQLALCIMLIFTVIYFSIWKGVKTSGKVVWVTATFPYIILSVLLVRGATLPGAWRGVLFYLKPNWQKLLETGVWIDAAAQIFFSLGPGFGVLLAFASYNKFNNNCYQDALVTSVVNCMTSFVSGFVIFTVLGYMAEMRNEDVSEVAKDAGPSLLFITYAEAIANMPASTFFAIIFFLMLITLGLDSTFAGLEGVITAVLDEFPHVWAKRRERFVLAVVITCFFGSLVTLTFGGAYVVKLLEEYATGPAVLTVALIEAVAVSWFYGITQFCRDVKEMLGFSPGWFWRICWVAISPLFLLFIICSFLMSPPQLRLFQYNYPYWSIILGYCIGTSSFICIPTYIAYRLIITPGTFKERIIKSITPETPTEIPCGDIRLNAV
Sequence of D2 receptors (P14416 whole entry): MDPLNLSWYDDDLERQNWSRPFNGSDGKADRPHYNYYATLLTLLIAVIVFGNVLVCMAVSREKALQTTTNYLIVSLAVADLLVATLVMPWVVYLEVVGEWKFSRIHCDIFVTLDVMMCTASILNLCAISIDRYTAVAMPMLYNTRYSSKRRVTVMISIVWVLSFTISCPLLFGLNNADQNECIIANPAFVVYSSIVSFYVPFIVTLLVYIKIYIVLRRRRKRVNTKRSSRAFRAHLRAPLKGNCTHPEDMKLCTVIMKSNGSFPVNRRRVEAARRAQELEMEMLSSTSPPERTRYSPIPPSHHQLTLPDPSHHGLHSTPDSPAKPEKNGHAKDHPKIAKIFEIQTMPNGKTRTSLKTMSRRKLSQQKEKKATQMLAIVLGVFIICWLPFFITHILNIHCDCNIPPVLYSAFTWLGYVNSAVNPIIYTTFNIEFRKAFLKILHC

## CN(C)CCc1c[nH]c2cccc(O)c12 [Psilocin, psilocin]
[1]
  interaction with the SERT: inhibits
[2]
  activity at the 5-HT2A receptor (agonism / stimulation): stimulates

## CCN(CC)C(=O)[C@@H]1C=C2c3cccc4[nH]cc(c34)C[C@H]2N(C)C1 [LSD, lysergic acid diethylamide]
[3]
  activity at D2 receptors: has activity
[2]
  activity at the 5-HT2A receptor (agonism / stimulation): agonists; also recorded: potently stimulates

## CN(C)CCc1c[nH]c2ccccc12 [DMT, N,N-dimethyltryptamine]
[2]
  activity at the 5-HT2A receptor (agonism / stimulation): agonists

## COc1cc(CCN)cc(OC)c1OC [mescaline]
[4]; humans
  dose needed to induce a full psychedelic experience: 200 to 800 mg
[4]; humans, psychoactive doses
  time of peak of subjective effects: 4 h
  time until subjective effects appear: ≤ 30 min
[4]; humans, psychoactive doses, dose-dependent
  duration of subjective effects: 10 to 16 h
[5]
  plasma half-life: approximately 6 hours
[6]
  5-HT2A receptor ligand strength: very weak
[3]
  affinity for D2 receptors: no affinity
[1]
  interaction with the SERT: do not interact
[2]
  activity at the 5-HT2A receptor (agonism / stimulation): agonists

## COc1cc(CCN)cc(OC)c1C [DESOXY, 3,5-dimethoxy-4-methylphenethylamine]
[4]; human
  psychoactive effects in human: has shown psychoactive effects in human
